In US7566699B2, “Fused heterocyclic derivative, medicinal composition containing the same, and medicinal use thereof” (Kissei Pharmaceutical Co., Ltd., priority 2003, dated 2009):
pIC50: −log10 of the molar value.

Legend:
human SGLT2 = molecular target: T1, human SGLT2 (Homo sapiens, UniProt P31639); test: Assay for inhibitory effects on human SGLT2 activity (uptake of methyl-α-D-glucopyranoside); format: cell-based; details: inhibition of uptake of 14C-labeled methyl-α-D-glucopyranoside (1 mM) in CS2-5E cells (CHO-K1) stably expressing human SGLT2, 37° C., 1 hour
T1 construct: expressed in transfected cells
T1 sequence (P31639 1-672): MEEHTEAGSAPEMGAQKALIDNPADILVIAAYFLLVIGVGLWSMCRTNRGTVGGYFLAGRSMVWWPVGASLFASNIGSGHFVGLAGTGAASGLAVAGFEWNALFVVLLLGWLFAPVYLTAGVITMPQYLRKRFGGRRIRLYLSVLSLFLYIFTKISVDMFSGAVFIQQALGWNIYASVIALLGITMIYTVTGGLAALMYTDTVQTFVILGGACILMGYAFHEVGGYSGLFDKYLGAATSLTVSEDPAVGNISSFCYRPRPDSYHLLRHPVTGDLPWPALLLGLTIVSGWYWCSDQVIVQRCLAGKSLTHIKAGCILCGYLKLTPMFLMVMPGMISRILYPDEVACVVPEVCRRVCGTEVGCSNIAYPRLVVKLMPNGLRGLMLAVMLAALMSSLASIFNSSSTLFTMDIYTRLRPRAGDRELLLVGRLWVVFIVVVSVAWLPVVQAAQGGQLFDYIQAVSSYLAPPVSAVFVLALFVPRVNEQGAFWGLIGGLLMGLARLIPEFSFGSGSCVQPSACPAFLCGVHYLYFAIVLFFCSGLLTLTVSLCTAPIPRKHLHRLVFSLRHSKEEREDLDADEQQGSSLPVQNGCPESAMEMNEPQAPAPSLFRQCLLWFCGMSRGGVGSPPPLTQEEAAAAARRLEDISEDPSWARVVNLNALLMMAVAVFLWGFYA
Procedure: Assay for Inhibitory Effects on Human SGLT2 Activity
1) Cloning and Construction of the Vector Expressing Human SGLT2
(§1) The cDNA library was prepared for PCR amplification by reverse transcription from total RNA deprived from human kidney (Ori gene) using oligo-dT as a primer. Using this cDNA library as a template, the DNA fragment coding 2 to 2039 bp of human SGLT2 (ACCESSION: M95549, M95299), which was reported by R. G. Wells et al., was amplified by PCR method and inserted into the multi-cloning site of pcDNA3.1(−) (Invitrogen). The DNA sequence inserted was perfectly matched to the previously reported sequence.
2) Establishment of Cell Line Stably Expressing Human SGLT2
(§2) The expression vector of human SGLT2 was digested by Sca I into a linear DNA. The linear DNA was transfected into CHO-K1 cells by means of lipofection (Effectene Transfection Reagent: QIAGEN). Neomycin resistant cell lines were selected by culture in the medium containing G418 (1 mg/mL, LIFE TECHNOLOGIES), and then the activity against the uptake of methyl-α-D-glucopyranoside was measured by the method described below. […] CS2-5E cells were cultured in the presence of G418 at 200 μg/mL.
3) Measurement of the Inhibitory Activity Against the Uptake of Methyl-α-D-glucopyranoside (α-MG)
CS2-5E cells were seeded into a 96-well culture plate at a density of 3×10^4 cells/well and cultured for 2 days, and were used in the uptake assay. A mixture of non-labeled (Sigma) and ^14C-labeled α-MG (Amersham Pharmacia Biotech) was added to the uptake buffer (pH 7.4; containing 140 mM sodium chloride, 2 mM potassium chloride, 1 mM calcium chloride, 1 mM magnesium chloride, 10 mM 2-[4-(2-hydroxyethyl)-1-piperazinyl]ethane sulfonic acid and 5 mM tris(hydroxymethyl)aminomethane) at the final concentration of 1 mM. […] Radioactivity was measured by means of micro-scintillation counter TopCount (Packard). One hundred % was set to the difference between the uptake in the control group and the basal uptake, and the uptake of methyl α-D-glucopyranoside at each drug concentration were calculated. […]

human SGLT1 = molecular target: T2, human SGLT1 (Homo sapiens, UniProt P13866); test: Assay for inhibitory effects on human SGLT1 activity (uptake of methyl-α-D-glucopyranoside); format: cell-based; details: inhibition of uptake of 14C-labeled methyl-α-D-glucopyranoside (1 mM) in CS1-5-11D cells stably expressing human SGLT1, 37° C., 1 hour
T2 construct: expressed in transfected cells
T2 sequence (P13866 1-664): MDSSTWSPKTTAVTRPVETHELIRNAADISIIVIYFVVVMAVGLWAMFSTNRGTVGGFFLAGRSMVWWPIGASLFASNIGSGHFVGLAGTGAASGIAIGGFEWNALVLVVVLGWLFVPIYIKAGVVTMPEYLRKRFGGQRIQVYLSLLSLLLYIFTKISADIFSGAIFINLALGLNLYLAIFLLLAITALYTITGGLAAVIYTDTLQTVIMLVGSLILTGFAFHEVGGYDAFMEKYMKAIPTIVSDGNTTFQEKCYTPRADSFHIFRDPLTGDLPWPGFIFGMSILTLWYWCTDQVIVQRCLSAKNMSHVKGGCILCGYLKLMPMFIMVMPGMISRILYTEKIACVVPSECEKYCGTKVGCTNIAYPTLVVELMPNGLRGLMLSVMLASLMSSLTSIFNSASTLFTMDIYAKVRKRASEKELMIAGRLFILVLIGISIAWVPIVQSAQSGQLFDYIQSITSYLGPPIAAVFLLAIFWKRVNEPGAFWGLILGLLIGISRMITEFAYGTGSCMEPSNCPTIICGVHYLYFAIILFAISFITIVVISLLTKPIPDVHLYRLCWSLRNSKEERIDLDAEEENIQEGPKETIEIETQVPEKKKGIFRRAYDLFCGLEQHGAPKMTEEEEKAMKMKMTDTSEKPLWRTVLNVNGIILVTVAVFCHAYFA
Procedure: Assay for Inhibitory Effects on Human SGLT1 Activity
1) Cloning and Construction of the Vector Expressing Human SGLT1
as §1, with “small intestine” for “kidney”, “1” for “2”, “2005” for “2039”, “SGLT1” for “SGLT2”, “M24847),” for “M95549, M95299),”, “Hediger” for “R. G. Wells”
2) Establishment of Cell Line Stably Expressing Human SGLT1
as §2, with “SGLT1” for “SGLT2”, “[…]” for “CHO-K1”, “methyl-αD-glucopyranoside” for “methyl-α-D-glucopyranoside”, “CS1-5-11D” for “CS2-5E”, “μg/mL. […]” for “μg/mL.”
CS1-5-11D cells were seeded into a 96-well culture plate at a density of 3×10^4 cells/well and cultured for 2 days, and were used in the uptake assay. […] Radioactivity was measured by means of micro-scintillation counter TopCount (Packard). […]

Row | pIC50 (human SGLT2) | pIC50 (human SGLT1) | SMILES
1 | 7.39 |  | Cc1ccccc1CCc1coc2cccc(O[C@@H]3O[C@H](CO)[C@@H](O)[C@H](O)[C@H]3O)c12 [Example 3, 4-(β-D-Glucopyranosyloxy)-3-[2-(2-methylphenyl)ethyl]-benzofuran]
2 |  | 7.82 | OC[C@H]1O[C@@H](Oc2cc(O)cc3occ(CCc4ccccc4)c23)[C@H](O)[C@@H](O)[C@@H]1O [Example 7, 4-(β-D-Glucopyranosyloxy)-6-hydroxy-3-(2-phenylethyl)benzofuran]
3 | 7.92 |  | OC[C@H]1O[C@@H](Oc2cccc3occ(CCc4ccncc4)c23)[C@H](O)[C@@H](O)[C@@H]1O [Example 43, 4-(β-D-Glucopyranosyloxy)-3-[2-(4-pyridyl)ethyl]benzofuran]

Second part, the molecule before the results:

Row | SMILES | pIC50 (human SGLT2) | pIC50 (human SGLT1)
4 | OC[C@H]1O[C@@H](Oc2cccc3occ(CCc4ccccc4)c23)[C@H](O)[C@@H](O)[C@@H]1O [Example 2, 4-(β-D-Glucopyranosyloxy)-3-(2-phenylethyl)benzofuran] | 8.22 | 
5 | OC[C@H]1O[C@@H](Oc2cccc3occ(CCc4ccc(OCCCNC(CO)(CO)CO)cc4)c23)[C@H](O)[C@@H](O)[C@@H]1O [Example 24, 4-(β-D-Glucopyranosyloxy)-3-[2-(4-{3-[2-hydroxy-1,1-bis(hydroxymethyl)ethylamino]propoxy}phenyl)ethyl]benzofuran] |  | 7.60
